The supplement of paper PMC10307832

Assays:
Assay in all cases: relative viability (nuclei count vs DMSO), 5 days (fraction); higher = more cells survive
[1] = compound: COc1ccc(-c2ccc3c(N4CCOC[C@@H]4C)nc(N4CCOC[C@@H]4C)nc3n2)cc1CO [AZD8055] + C[C@@H](Oc1cc(-c2cnn(C3CCNCC3)c2)cnc1N)c1c(Cl)ccc(F)c1Cl [Crizotinib] (partner 1 µM)
Outline: (§1)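 After 5 days of treatment, lung cancer cells in 1536-well plates were fixed and stained in a single step (final 0.05% Triton X-100, 1% formaldehyde, 1 ug/ml Hoechst) and their nuclei counted on 4× images. Treatment had been applied by pin tool the day after seeding as one drug alone or as a fixed anchor-drug dose with five library-drug doses (not always all listed) in √10 steps. Relative viability is the nuclei count of treated wells divided by that of vehicle wells, and values are medians of duplicate plates.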

[2] = compound: COc1ccc(-c2ccc3c(N4CCOC[C@@H]4C)nc(N4CCOC[C@@H]4C)nc3n2)cc1CO [AZD8055] + CC(=O)c1c(C)c2cnc(Nc3ccc(N4CCNCC4)cn3)nc2n(C2CCCC2)c1=O [Palbociclib] (partner 0.5 µM)
Outline: as §1

[3] = compound: COc1ccc(-c2ccc3c(N4CCOC[C@@H]4C)nc(N4CCOC[C@@H]4C)nc3n2)cc1CO [AZD8055] + NC(=O)Nc1cc(-c2cccc(F)c2)sc1C(=O)N[C@H]1CCCNC1 [AZD7762] (partner 0.2 µM)
Outline: as §1

[4] = compound: COc1ccc(-c2ccc3c(N4CCOC[C@@H]4C)nc(N4CCOC[C@@H]4C)nc3n2)cc1CO [AZD8055] + O=C(CCCCCCC(=O)Nc1ccccc1)NO [Vorinostat] (partner 1 µM)
Outline: as §1

Cell Line | relative viability ([1]; first compound 0.01 µM) | relative viability ([1]; first compound 0.03162 µM) | relative viability ([1]; first compound 0.1 µM) | relative viability ([1]; first compound 0.3162 µM) | relative viability ([1]; first compound 1 µM) | relative viability ([2]; first compound 0.01 µM) | relative viability ([2]; first compound 0.03162 µM) | relative viability ([2]; first compound 0.1 µM) | relative viability ([2]; first compound 0.3162 µM) | relative viability ([2]; first compound 1 µM) | relative viability ([3]; first compound 0.01 µM) | relative viability ([3]; first compound 0.03162 µM) | relative viability ([3]; first compound 0.1 µM) | relative viability ([3]; first compound 0.3162 µM) | relative viability ([3]; first compound 1 µM) | relative viability ([4]; first compound 0.01 µM) | relative viability ([4]; first compound 0.03162 µM) | relative viability ([4]; first compound 0.1 µM) | relative viability ([4]; first compound 0.3162 µM) | relative viability ([4]; first compound 1 µM)
201T | 1.09 | 1.02 | 0.997 | 0.772 | 0.721 | 0.354 | 0.314 | 0.278 | 0.251 | 0.303 | 0.621 | 0.413 | 0.5 | 0.362 | 0.374 | 0.974 | 0.943 | 0.824 | 0.679 | 0.575
A549 | 0.674 | 0.689 | 0.324 | 0.231 | 0.0846 | – | – | – | – | – | – | – | – | – | – | – | – | – | – | –
A-427 | 1.03 | 0.849 | 0.786 | 0.438 | 0.403 | 0.516 | 0.553 | 0.467 | 0.392 | 0.409 | 0.762 | 0.597 | 0.529 | 0.5 | 0.427 | 0.928 | 0.868 | 0.849 | 0.6 | 0.535
ABC-1 | 1.09 | 1.04 | 0.812 | 0.602 | 0.479 | 0.915 | 0.54 | 0.483 | 0.503 | 0.47 | 0.879 | 0.766 | 1.02 | 0.406 | 0.495 | 1.07 | 1.15 | 1.12 | 0.466 | 0.533
BEN | 0.956 | 0.531 | 0.44 | 0.351 | 0.31 | 0.485 | 0.472 | 0.436 | 0.475 | 0.413 | 0.684 | 0.408 | 0.41 | 0.403 | 0.357 | 0.614 | 0.443 | 0.442 | 0.327 | 0.297
CAL-12T | 0.557 | 0.607 | 0.521 | 0.308 | 0.165 | 0.353 | 0.399 | 0.171 | 0.163 | 0.191 | 0.695 | 0.8 | 0.733 | 0.421 | 0.339 | 0.954 | 0.631 | 0.598 | 0.276 | 0.217
COR-L23 | 0.585 | 0.738 | 0.55 | 0.271 | 0.169 | 0.319 | 0.226 | 0.199 | 0.126 | 0.124 | – | – | – | – | – | 0.505 | 0.395 | 0.326 | 0.169 | 0.177
COR-L 105 | 0.807 | 0.875 | 0.706 | 0.465 | 0.292 | 0.426 | 0.388 | 0.374 | 0.403 | 0.381 | – | – | – | – | – | 0.865 | 0.766 | 0.805 | 0.516 | 0.421
Calu-6 | 1.03 | 0.699 | 0.556 | 0.42 | 0.322 | – | – | – | – | – | – | – | – | – | – | – | – | – | – | –
ChaGo-K-1 | 1.28 | 1.21 | 1.07 | 1.18 | 0.887 | 1.01 | 0.87 | 0.864 | 0.728 | 0.652 | 0.957 | 0.832 | 0.828 | 0.703 | 0.645 | 0.769 | 0.673 | 0.741 | 0.631 | 0.541
EBC-1 | 0.155 | 0.204 | 0.197 | 0.221 | 0.219 | – | – | – | – | – | – | – | – | – | – | – | – | – | – | –
EKVX | 1.21 | 0.943 | 0.81 | 0.524 | 0.393 | 0.466 | 0.365 | 0.278 | 0.211 | 0.173 | 0.783 | 0.594 | 0.605 | 0.375 | 0.29 | 0.68 | 0.729 | 0.519 | 0.422 | 0.366
EMC-BAC-2 | 0.764 | 0.706 | 0.612 | 0.337 | 0.344 | 0.477 | 0.437 | 0.376 | 0.31 | 0.29 | 1.03 | 0.912 | 0.956 | 0.517 | 0.377 | 0.445 | 0.342 | 0.303 | 0.263 | 0.287
EPLC-272H | 0.865 | 0.739 | 0.498 | 0.494 | 0.37 | 0.319 | 0.303 | 0.309 | 0.27 | 0.219 | 0.178 | 0.0952 | 0.243 | 0.109 | 0.127 | 0.331 | 0.401 | 0.343 | 0.144 | 0.261
H3255 | 1.3 | 0.818 | 0.718 | 0.407 | 0.301 | 0.3 | 0.303 | 0.314 | 0.288 | 0.292 | 1.03 | 0.951 | 0.803 | 0.471 | 0.413 | 0.967 | 0.746 | 0.747 | 0.513 | 0.357
HARA | 1.09 | 1.14 | 0.855 | 0.573 | 0.33 | 0.223 | 0.234 | 0.216 | 0.255 | 0.171 | – | 0.384 | 0.406 | 0.487 | 0.306 | 0.574 | 0.527 | 0.441 | 0.24 | 0.227
HCC-15 | 0.816 | 0.788 | 0.746 | 0.529 | 0.334 | 0.858 | 0.687 | 0.667 | 0.369 | 0.275 | 1.26 | 1.18 | 1.21 | 0.885 | 0.559 | 0.833 | 0.844 | 0.762 | 0.468 | 0.333
HCC-44 | 0.879 | 0.825 | 0.662 | 0.364 | 0.315 | 0.949 | 0.936 | 0.949 | 0.925 | 0.867 | 1.03 | 1.01 | 0.972 | 0.992 | 0.925 | 1.12 | 1.22 | 1.07 | 0.735 | 0.803
HCC-78 | 0.303 | 0.307 | 0.233 | 0.213 | 0.19 | 0.492 | 0.529 | 0.379 | 0.437 | 0.463 | 0.658 | 0.541 | 0.47 | 0.347 | 0.269 | 0.428 | 0.394 | 0.38 | 0.398 | 0.321
